US20240382483A1, “HETEROCYCLIC EGFR INHIBITORS FOR USE IN THE TREATMENT OF CANCER” (Blueprint Medicines Corporation, priority 2021, published 2024)
Like-named read-outs stand apart in the source and are kept apart here.

Key:
EGFR (L858R T790M C797S) = target: T1, EGFR (L858R T790M C797S) (Homo sapiens, UniProt P00533, C797S/L858R/T790M); test: Biochemical EGFR inhibition assay (Caliper mobility shift), EGFR LRTMCS
T1 construct: purchased SignalChem E10-122VG
Summary of the method: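 Kinase reactions proceed at 25° C. to 10%–20% conversion of total peptide, are terminated with 35 mM EDTA, and the phosphopeptide is resolved from substrate by electrophoretic mobility shift. Apparent IC50 values come from plotting percent activity against log compound concentration.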

[1] = target: T2, intracellular phosphorylation of EGFR in NCI-H1975 cell line that harbors the EGFR L858R T790M mutations (Homo sapiens, UniProt P00533, L858R/T790M); test: NCI-H1975 pEGFR AlphaLISA assay; type: cell-based; settings: NCI-H1975 cells (EGFR L858R T790M), p-EGFR (Tyr1068), 4-5 hours incubation; read-out: Ext pEGFR H1975 GMean IC50 (nM) Protocol: @Pharmaron AlphaLISA (Num)
T2 construct: NCI-H1975 cell line that harbors the EGFR L858R T790M mutations (ATCC, CRL-5908); host or cells: NCI-H1975
T2 sequence (P00533 25-1210 T790M/L858R): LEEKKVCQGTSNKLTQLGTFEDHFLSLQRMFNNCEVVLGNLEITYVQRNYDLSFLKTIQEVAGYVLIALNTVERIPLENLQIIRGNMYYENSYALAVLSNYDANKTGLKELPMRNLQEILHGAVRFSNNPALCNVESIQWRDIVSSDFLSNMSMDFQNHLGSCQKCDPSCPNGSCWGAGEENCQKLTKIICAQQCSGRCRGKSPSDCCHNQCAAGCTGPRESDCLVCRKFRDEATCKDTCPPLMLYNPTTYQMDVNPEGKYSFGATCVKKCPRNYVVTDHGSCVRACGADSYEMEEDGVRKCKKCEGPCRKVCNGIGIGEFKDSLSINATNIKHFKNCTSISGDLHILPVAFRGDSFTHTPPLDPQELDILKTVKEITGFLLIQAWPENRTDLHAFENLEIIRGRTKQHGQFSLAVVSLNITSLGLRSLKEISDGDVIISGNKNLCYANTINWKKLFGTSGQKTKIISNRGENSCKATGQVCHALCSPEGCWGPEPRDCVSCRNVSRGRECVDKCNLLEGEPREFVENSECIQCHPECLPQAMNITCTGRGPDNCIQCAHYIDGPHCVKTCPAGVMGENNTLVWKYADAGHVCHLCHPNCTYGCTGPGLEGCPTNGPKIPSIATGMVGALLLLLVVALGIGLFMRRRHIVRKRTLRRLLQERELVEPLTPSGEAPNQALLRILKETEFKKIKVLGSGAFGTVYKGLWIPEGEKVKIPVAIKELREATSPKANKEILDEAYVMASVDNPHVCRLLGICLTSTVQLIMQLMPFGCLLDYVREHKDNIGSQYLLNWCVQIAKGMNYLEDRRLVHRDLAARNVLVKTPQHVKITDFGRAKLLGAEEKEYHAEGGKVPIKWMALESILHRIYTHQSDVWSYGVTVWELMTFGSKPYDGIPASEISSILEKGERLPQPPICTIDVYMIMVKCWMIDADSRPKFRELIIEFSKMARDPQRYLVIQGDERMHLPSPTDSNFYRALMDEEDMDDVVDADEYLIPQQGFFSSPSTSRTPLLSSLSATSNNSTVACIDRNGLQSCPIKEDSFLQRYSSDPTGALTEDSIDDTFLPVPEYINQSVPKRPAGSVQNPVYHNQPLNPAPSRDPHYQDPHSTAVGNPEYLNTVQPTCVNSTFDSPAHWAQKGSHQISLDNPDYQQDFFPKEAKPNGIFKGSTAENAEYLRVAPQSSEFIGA
Method: On the next day, the test compounds and DMSO control were added into H1975 cell plate followed by incubation at 37C/5% CO2 for 4-5 hours. […] Then 5 μL of a donor bead mix was added to each well followed by overnight incubation at room temperature in dark. On the next day, the plate was read at a compatible plate reader to obtain pEGFR signal. Percent of pEGFR inhibition was plotted against log concentration of compounds to generate IC50 values.

[2] = read-out: LRTMCS (PH) IC50 (nM) @ 1 mM ATP (Num), EGFR LRTMCS mutant
[3] = LRTMCS (PH) IC50 (nM) @ 1 mM ATP (Num), EGFR LRTMCS mutant

T1 sequence (P00533 25-1210 T790M/C797S/L858R): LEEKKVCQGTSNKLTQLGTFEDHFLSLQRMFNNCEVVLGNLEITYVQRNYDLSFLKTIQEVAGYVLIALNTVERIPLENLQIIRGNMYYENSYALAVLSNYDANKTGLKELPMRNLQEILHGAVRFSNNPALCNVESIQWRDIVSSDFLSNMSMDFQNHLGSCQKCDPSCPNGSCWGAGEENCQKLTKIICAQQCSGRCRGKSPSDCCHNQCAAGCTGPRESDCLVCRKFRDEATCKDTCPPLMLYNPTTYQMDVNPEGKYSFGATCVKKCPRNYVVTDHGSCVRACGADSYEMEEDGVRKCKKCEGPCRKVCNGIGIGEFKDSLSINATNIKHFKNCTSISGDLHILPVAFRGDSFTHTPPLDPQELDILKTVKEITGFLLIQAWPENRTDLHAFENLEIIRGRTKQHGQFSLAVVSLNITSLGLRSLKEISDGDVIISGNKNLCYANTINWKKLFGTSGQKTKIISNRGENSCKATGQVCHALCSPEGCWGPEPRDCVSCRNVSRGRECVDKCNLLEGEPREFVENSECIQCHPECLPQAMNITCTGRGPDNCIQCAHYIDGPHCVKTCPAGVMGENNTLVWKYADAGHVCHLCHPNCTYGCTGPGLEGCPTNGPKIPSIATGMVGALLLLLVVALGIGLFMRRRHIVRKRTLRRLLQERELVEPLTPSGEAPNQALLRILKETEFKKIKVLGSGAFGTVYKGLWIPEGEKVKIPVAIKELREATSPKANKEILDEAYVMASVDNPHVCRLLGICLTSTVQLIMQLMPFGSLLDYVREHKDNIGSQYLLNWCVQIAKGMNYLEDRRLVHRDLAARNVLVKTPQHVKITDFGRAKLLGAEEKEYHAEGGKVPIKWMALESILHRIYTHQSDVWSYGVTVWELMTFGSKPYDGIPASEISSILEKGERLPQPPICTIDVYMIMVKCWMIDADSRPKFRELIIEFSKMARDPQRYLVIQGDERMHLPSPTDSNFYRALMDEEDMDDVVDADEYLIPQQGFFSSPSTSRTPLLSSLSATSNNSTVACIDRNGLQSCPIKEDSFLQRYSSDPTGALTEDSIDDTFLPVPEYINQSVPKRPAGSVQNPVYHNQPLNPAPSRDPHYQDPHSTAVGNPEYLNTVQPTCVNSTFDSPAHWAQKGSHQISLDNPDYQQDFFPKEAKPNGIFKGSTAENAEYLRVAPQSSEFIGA

IC50 (EGFR (L858R T790M C797S); [2]) | IC50 [1] | IC50 (EGFR (L858R T790M C797S); [3]) | Structure (SMILES)
< 15 nM | 20 to 30 nM |  | C[C@H](c1cnc(N2CC[C@H]2C)c2cnc(Nc3ccnc(N4CC[C@@H](O)[C@@](C)(F)C4)n3)cc12)C1COC1 (single isomer, unassigned) [Example 177, (3S,4R)-3-fluoro-3-methyl-1-(4-((8-((R)-2-methylazetidin-1-yl)-5-((S)-1-(oxetan-3-yl)ethyl)-2,7-naphthyridin-3-yl)amino)pyrimidin-2-yl)piperidin-4-ol or (3S,4R)-3-fluoro-3-methyl-1-(4-((8-((R)-2-methylazetidin-1-yl)-5-((R)-1-(oxetan-3-yl)ethyl)-2,7-naphthyridin-3-yl)amino)pyrimidin-2-yl)piperidin-4-ol]
 | 30 to 50 nM | < 15 nM | CC(C)c1cnc(-c2cn(C3COC3)cn2)c2cnc(Nc3ccnc(N4CC[C@@H](O)[C@@](C)(F)C4)n3)cc12 [Example 20, (3S,4R)-3-fluoro-1-(4-((5-isopropyl-8-(1-(oxetan-3-yl)-1H-imidazol-4-yl)-2,7-naphthyridin-3-yl)amino)pyrimidin-2-yl)-3-methylpiperidin-4-ol]
 | 10 to 20 nM | < 15 nM | CC(C)c1cnc(N2CC3(CCS3(=O)=O)C2)c2cnc(Nc3ccnc(N4C[C@@H](F)[C@@H](O)C(C)(C)C4)n3)cc12 (single isomer, unassigned) [Example 132, 6-(6-((2-((4S,5R)-5-fluoro-4-hydroxy-3,3-dimethylpiperidin-1-yl)pyrimidin-4-yl)amino)-4-isopropyl-2,7-naphthyridin-1-yl)-1-thia-6-azaspiro[3.3]heptane 1,1-dioxide or 6-(6-((2-((4R,5S)-5-fluoro-4-hydroxy-3,3-dimethylpiperidin-1-yl)pyrimidin-4-yl)amino)-4-isopropyl-2,7-naphthyridin-1-yl)-1-thia-6-azaspiro[3.3]heptane 1,1-dioxide]
 | 20 to 30 nM | < 15 nM | CO[C@H]1CCN(c2nccc(Nc3cc4c(C(C)C)cnc(N5CC(O)C5)c4cn3)n2)C[C@H]1F [Example 44, 1-(6-((2-((3R,4S)-3-fluoro-4-methoxypiperidin-1-yl)pyrimidin-4-yl)amino)-4-isopropyl-2,7-naphthyridin-1-yl)azetidin-3-ol]
 | > 50 nM | 30 to 100 nM | CC(C)c1cnc(N2C[C@H](O)[C@H]2C)c2cnc(Nc3ccnc(N4C[C@H](F)[C@H](O)[C@](C)(F)C4)n3)cc12 (single isomer, unassigned) [Example 134, (3R,4S,5S)-3,5-difluoro-1-(4-((8-((2R,3S)-3-hydroxy-2-methylazetidin-1-yl)-5-isopropyl-2,7-naphthyridin-3-yl)amino)pyrimidin-2-yl)-3-methylpiperidin-4-ol or (3S,4R,5R)-3,5-difluoro-1-(4-((8-((2R,3S)-3-hydroxy-2-methylazetidin-1-yl)-5-isopropyl-2,7-naphthyridin-3-yl)amino)pyrimidin-2-yl)-3-methylpiperidin-4-ol]
 | 20 to 30 nM | < 15 nM | CC(=O)N1CC(c2ccc(C(C)C)c3cc(Nc4ccnc(N5CC[C@@H](O)[C@@](C)(F)C5)n4)ncc23)C1 [Example 4, 1-(3-(3-((2-((3S,4R)-3-fluoro-4-hydroxy-3-methylpiperidin-1-yl)pyrimidin-4-yl)amino)-5-isopropylisoquinolin-8-yl)azetidin-1-yl)ethan-1-one]
 | 30 to 50 nM | < 15 nM | CO[C@@H]1CCN(c2nccc(Nc3cc4c(C(C)C)ccc(N5CC6(CCS6(=O)=O)C5)c4cn3)n2)C[C@@H]1O (single isomer, unassigned) [Example 125, 6-(3-((2-((3S,4R)-3-hydroxy-4-methoxypiperidin-1-yl)pyrimidin-4-yl)amino)-5-isopropylisoquinolin-8-yl)-1-thia-6-azaspiro[3.3]heptane 1,1-dioxide or 6-(3-((2-((3R,4S)-3-hydroxy-4-methoxypiperidin-1-yl)pyrimidin-4-yl)amino)-5-isopropylisoquinolin-8-yl)-1-thia-6-azaspiro[3.3]heptane 1,1-dioxide]
 | < 10 nM | < 15 nM | CC(C)c1cnc(N2CC[C@H]2C)c2cnc(Nc3ccnc(N4CC[C@@H](OCCO)[C@@H](F)C4)n3)cc12 [Example 142, 2-(((3S,4R)-3-fluoro-1-(4-((5-isopropyl-8-((R)-2-methylazetidin-1-yl)-2,7-naphthyridin-3-yl)amino)pyrimidin-2-yl)piperidin-4-yl)oxy)ethan-1-ol]
 | > 50 nM | 30 to 100 nM | C[C@@H]1CCN1c1ncc([C@@H](C)OCC2COC2)c2cc(Nc3ccnc(N4CC[C@@H](O)[C@@](C)(F)C4)n3)ncc12 (single isomer, unassigned) [Example 183, (3S,4R)-3-fluoro-3-methyl-1-(4-((8-((R)-2-methylazetidin-1-yl)-5-((R)-1-(oxetan-3-ylmethoxy)ethyl)-2,7-naphthyridin-3-yl)amino)pyrimidin-2-yl)piperidin-4-ol or (3S,4R)-3-fluoro-3-methyl-1-(4-((8-((R)-2-methylazetidin-1-yl)-5-((S)-1-(oxetan-3-ylmethoxy)ethyl)-2,7-naphthyridin-3-yl)amino)pyrimidin-2-yl)piperidin-4-ol]
 | > 50 nM | 20 to 30 nM | CC(C)c1cnc(N2CC(C)(O)C2)c2cnc(Nc3ccnc(N4CC[C@@H](O)[C@@](C)(F)C4)n3)cc12 [Example 50, (3S,4R)-3-fluoro-1-(4-((8-(3-hydroxy-3-methylazetidin-1-yl)-5-isopropyl-2,7-naphthyridin-3-yl)amino)pyrimidin-2-yl)-3-methylpiperidin-4-ol]

The remaining lines, values behind:

Structure (SMILES) | IC50 (EGFR (L858R T790M C797S); [2]) | IC50 [1] | IC50 (EGFR (L858R T790M C797S); [3])
C[C@H](CC#N)c1cnc(N2CC[C@H]2C)c2cnc(Nc3ccnc(N4CC[C@@H](O)[C@@](C)(F)C4)n3)cc12 (single isomer, unassigned) [Example 37, (R)-3-(6-((2-((3S,4R)-3-fluoro-4-hydroxy-3-methylpiperidin-1-yl)pyrimidin-4-yl)amino)-1-((R)-2-methylazetidin-1-yl)-2,7-naphthyridin-4-yl)butanenitrile or (S)-3-(6-((2-((3S,4R)-3-fluoro-4-hydroxy-3-methylpiperidin-1-yl)pyrimidin-4-yl)amino)-1-((R)-2-methylazetidin-1-yl)-2,7-naphthyridin-4-yl)butanenitrile] | < 15 nM | 10 to 20 nM | 
CC(C)c1cnc(N2CC(C[S+]([O-])C(F)(F)F)C2)c2cnc(Nc3ccnc(N4CC[C@@H](O)[C@@](C)(F)C4)n3)cc12 (stereo partly drawn) [Example 100, (3S,4R)-3-fluoro-1-(4-((5-isopropyl-8-(3-(((trifluoromethyl)sulfinyl)methyl)azetidin-1-yl)-2,7-naphthyridin-3-yl)amino)pyrimidin-2-yl)-3-methylpiperidin-4-ol] |  | 10 to 20 nM | < 15 nM
CC(C)c1ccc(C2CN(S(C)(=O)=O)C2)c2cnc(Nc3ccnc(N4CC[C@@H](O)[C@@](C)(F)C4)n3)cc12 [Example 3, (3S,4R)-3-fluoro-1-(4-((5-isopropyl-8-(1-(methylsulfonyl)azetidin-3-yl)isoquinolin-3-yl)amino)pyrimidin-2-yl)-3-methylpiperidin-4-ol] |  | 20 to 30 nM | < 15 nM
CC(C)c1cnc(N2CCC23COC3)c2cnc(Nc3ccnc(N4CC[C@@H](O)[C@@](C)(F)C4)n3)cc12 [Example 53, (3S,4R)-3-fluoro-1-(4-((5-isopropyl-8-(6-oxa-1-azaspiro[3.3]heptan-1-yl)-2,7-naphthyridin-3-yl)amino)pyrimidin-2-yl)-3-methylpiperidin-4-ol] |  | 20 to 30 nM | < 15 nM
CC(C)c1ccc(N2CC[C@H]2CO)c2cnc(Nc3ccnc(N4CC[C@@H](O)[C@@](C)(F)C4)n3)cc12 [Example 105, (3S,4R)-3-fluoro-1-(4-((8-((S)-2-(hydroxymethyl)azetidin-1-yl)-5-isopropylisoquinolin-3-yl)amino)pyrimidin-2-yl)-3-methylpiperidin-4-ol] |  | 20 to 30 nM | < 15 nM
CC(C)c1cnc(N2C[C@H](O)[C@H]2C)c2cnc(Nc3ccnc(N4C[C@H](F)[C@H](O)[C@@](C)(F)C4)n3)cc12 (single isomer, unassigned) [Example 135, (3S,4S,5S)-3,5-difluoro-1-(4-((8-((2R,3S)-3-hydroxy-2-methylazetidin-1-yl)-5-isopropyl-2,7-naphthyridin-3-yl)amino)pyrimidin-2-yl)-3-methylpiperidin-4-ol or (3R,4R,5R)-3,5-difluoro-1-(4-((8-((2R,3S)-3-hydroxy-2-methylazetidin-1-yl)-5-isopropyl-2,7-naphthyridin-3-yl)amino)pyrimidin-2-yl)-3-methylpiperidin-4-ol] |  | > 50 nM | 20 to 30 nM
C[C@@H]1CCN1c1ncc([C@@H](C)C(C)(C)O)c2cc(Nc3ccnc(N4CC[C@@H](O)[C@@](C)(F)C4)n3)ncc12 (single isomer, unassigned) [Example 186, (3S,4R)-3-fluoro-1-(4-((5-((R)-3-hydroxy-3-methylbutan-2-yl)-8-((R)-2-methylazetidin-1-yl)-2,7-naphthyridin-3-yl)amino)pyrimidin-2-yl)-3-methylpiperidin-4-ol or (3S,4R)-3-fluoro-1-(4-((5-((S)-3-hydroxy-3-methylbutan-2-yl)-8-((R)-2-methylazetidin-1-yl)-2,7-naphthyridin-3-yl)amino)pyrimidin-2-yl)-3-methylpiperidin-4-ol] |  | 10 to 20 nM | < 15 nM
